Experimental data reported in US4281136A, “2-Alkyl-3-haloisothiazolium salts and their derivatives” (Givaudan Corporation, priority 1978, dated 1981).
≈ marks a conversion by molar mass, not a printed value. Where two headings read alike, the source gives them in different places.

Key:
Aureobasidium pullulans = assay: preservative for latex paints; assay type: cell-based; conditions: for zone of inhibition at 0.5 %: read-out: Zone (zone of inhibition), Conc. 0.5% in vinyl acetate paint, three weeks, 27°-28°; for Surface (growth on the surface of painted square) / Zone (zone of inhibition): three weeks, 27°-28°; for Surface (growth on the surface of painted square): none, medium or heavy; for Zone (zone of inhibition): listed as CH3, Cl, Cl
Experimental: Various quantities of the chemical were incorporated into a white exterior vinyl acetate paint. Whatman #30 filter paper was painted with one coat of paint on each side. One inch squares were cut and placed in Petri dishes on a malt agar.
The surface of both the agar and the painted squares were inoculated with a spore suspension of Aureobasidium pullulans. The plates were examined for zones of inhibition and surface growth after three weeks incubation in a humidity chamber at 27°-28°.
Various quantities of 4,5-dichloro-2-methyl-4-isothiazolin-3-thione were incorporated into a white exterior vinyl acetate paint and tested as described in Example IV.

P. aeruginosa = assay: slimicide for pulp and paper mill water systems, P. aeruginosa; assay type: cell-based; conditions: for MIC: Pseudomonas aeruginosa, read-out: Minimum inhibitory concentration
Experimental: (§1) Various quantities of a 6% solution of this compound in dimethylformamide were incorporated into 24 ml of a test substrate composed as follows:
(§2) 8.4 g Whatman No. 2 cellulose
(§3) 1.0 g Nutrient Broth, Difco
(§4) 10.0 ml Mersize Rm 70R (Monsanto)
(§5) The samples were inoculated with four different organisms and incubated at 28° C. At weekly intervals the samples were examined for the presence of microbial growth and reinoculated during a total incubation period of four weeks.
(§6) The test of Example V was used to determine the effectiveness of 4,5-dichloro-3-dicyanomethylene-2-methyl-4-isothiazoline as a slimicide.

Ps. aeruginosa = assay: preservative for cutting oil emulsions; assay type: cell-based; conditions: for MIC: Pseudomonas aeruginosa; for Minimum Inhibitory Concentration: listed as CH3, Cl, Cl
Experimental: Various aliquots of a 6% solution of the chemical in ethanol were added to cutting oil emulsions prepared by diluting Kutwell 30 cutting oil concentrate 1 to 30 with water. These samples were inoculated with a culture of Ps. aeruginosa and incubated at 28° on a rotary shaker. At weekly intervals the samples were examined for microorganisms and then reinoculated and incubated.

A. niger = assay: slimicide for pulp and paper mill water systems, A. niger; assay type: cell-based; conditions: for MIC: Aspergillus niger, read-out: Minimum inhibitory concentration
Experimental: as §1, §2, §3, §4, §5, §6

P. piscarium = assay: slimicide for pulp and paper mill water systems, P. piscarium; assay type: cell-based
Experimental: as §1, §2, §3, §4, §5, §6

E. aerogenes = assay: slimicide for pulp and paper mill water systems, E. aerogenes; assay type: cell-based; conditions: for MIC: Klebsiella aerogenes
Experimental: as §1, §2, §3, §4, §5, §6

four different organisms = assay: slimicide for pulp and paper mill water systems, overall; assay type: cell-based, P. aeruginosa, E. aerogenes, A. niger, P. Piscarium; conditions: four weeks, 28° C.
Experimental: as §1, §2, §3, §4, §5

[1] = Conc. 0.25% in vinyl acetate paint
[2] = Conc. 0.5% in vinyl acetate paint
[3] = read-out: Minimum inhibitory concentration, P. Piscarium, week 1, 28° C.
[4] = read-out: Minimum inhibitory concentration, P. Piscarium, week 2, 28° C.
[5] = read-out: Minimum inhibitory concentration, P. Piscarium, week 3, 28° C.
[6] = read-out: Minimum inhibitory concentration, P. Piscarium, week 4, 28° C.
[7] = read-out: Minimum inhibitory concentration, E. aerogenes, week 1, 28° C.
[8] = read-out: Minimum inhibitory concentration, E. aerogenes, week 2, 28° C.
[9] = read-out: Minimum inhibitory concentration, E. aerogenes, week 3, 28° C.
[10] = read-out: Minimum inhibitory concentration, E. aerogenes, week 4, 28° C.

| Compound | zone of inhibition at 0.5 % (Aureobasidium pullulans; Aureobasidium pullulans, 504 h) | Surface (growth on the surface of painted square) (Aureobasidium pullulans; [1]) | Surface (growth on the surface of painted square) (Aureobasidium pullulans; [2]) | Minimum Inhibitory Concentration (P. aeruginosa; P. aeruginosa, week 2, 28° C.) | Minimum Inhibitory Concentration (P. aeruginosa; P. aeruginosa, week 3, 28° C.) | Minimum Inhibitory Concentration (P. aeruginosa; P. aeruginosa, week 4, 28° C.) | MIC (P. aeruginosa) | Minimum Inhibitory Concentration (A. niger; A. niger, week 2, 28° C.) | Minimum Inhibitory Concentration (A. niger; A. niger, week 3, 28° C.) | Minimum Inhibitory Concentration (A. niger; A. niger, week 4, 28° C.) | MIC (A. niger) | MIC (P. piscarium; [3]) | MIC (P. piscarium; [4]) | MIC (P. piscarium; [5]) | MIC (P. piscarium; [6]) | MIC (E. aerogenes; [7]) | MIC (E. aerogenes; [8]) | MIC (E. aerogenes; [9]) | MIC (E. aerogenes; [10]) | other results |
| --- | --- | --- | --- | --- | --- | --- | --- | --- | --- | --- | --- | --- | --- | --- | --- | --- | --- | --- | --- | --- |
| Cn1sc(Cl)c(Cl)c1=S [No. 1 (Table VIII), 4,5-Dichloro-2-methyl-4-isothiazolin-3-thione] | 20 mm | no growth | no growth | 16 µg/mL | 16 µg/mL | 16 µg/mL | 16 µg/mL (≈ 80 µM) | < 8 µg/mL | < 8 µg/mL | < 8 µg/mL | < 8 µg/mL | < 8 µg/mL | < 8 µg/mL | < 8 µg/mL | 16 µg/mL (≈ 80 µM) | < 8 µg/mL | < 8 µg/mL | 16 µg/mL (≈ 80 µM) | 16 µg/mL (≈ 80 µM) | zone of inhibition at 0.25 % (Aureobasidium pullulans; Aureobasidium pullulans, 504 h, read-out: Zone (zone of inhibition), Conc. 0.25% in vinyl acetate paint, three weeks, 27°-28°): 20 mm; MIC (Ps. aeruginosa; 168 h, read-out: Minimum Inhibitory Concentration, cutting oil emulsion, incubation 1 week, 28°): < 16 µg/mL; MIC (Ps. aeruginosa; 336 h, read-out: Minimum Inhibitory Concentration, cutting oil emulsion, incubation 2 weeks, 28°): 62 µg/mL (≈ 310 µM); MIC (Ps. aeruginosa; 504 h, read-out: Minimum Inhibitory Concentration, cutting oil emulsion, incubation 3 weeks, 28°): 62 µg/mL (≈ 310 µM); MIC (Ps. aeruginosa; 672 h, read-out: Minimum Inhibitory Concentration, cutting oil emulsion, incubation 4 weeks, 28°): 62 µg/mL (≈ 310 µM) |
| C[n+]1sc(Cl)c(Cl)c1Cl [No. 2 (Table I), 2-Methyl-3,4,5-trichloroisothiazolium methylsulfate] |  | None | None | 7.8 µg/mL | 7.8 µg/mL | 7.8 µg/mL | 7.8 µg/mL | 3.9 µg/mL | 3.9 µg/mL | 3.9 µg/mL | 3.9 µg/mL | 3.9 µg/mL | 3.9 µg/mL | 3.9 µg/mL | 3.9 µg/mL | 3.9 µg/mL | 3.9 µg/mL | 3.9 µg/mL | 3.9 µg/mL | Zone (zone of inhibition) (Aureobasidium pullulans; Conc. 0.25% in vinyl acetate paint, O3SOMe): 0 mm; Zone (zone of inhibition) (Aureobasidium pullulans; Conc. 0.5% in vinyl acetate paint, O3SOMe): > 20 mm; Minimum Inhibitory Concentration (Ps. aeruginosa; cutting oil emulsion, incubation 1 week, 28°, O3SOMe): < 2 µg/mL; Minimum Inhibitory Concentration (Ps. aeruginosa; cutting oil emulsion, incubation 2 weeks, 28°, O3SOMe): < 2 µg/mL; Minimum Inhibitory Concentration (Ps. aeruginosa; cutting oil emulsion, incubation 3 weeks, 28°, O3SOMe): < 16 µg/mL; Minimum Inhibitory Concentration (Ps. aeruginosa; cutting oil emulsion, incubation 4 weeks, 28°, O3SOMe): < 16 µg/mL; concentration effective as a slimicide (four different organisms): < 0.01% |
| CN1SC(Cl)=C(Cl)C1=C(C#N)C#N [drawing 12 CH3, Cl, Cl, 4,5-dichloro-3-dicyanomethylene-2-methyl-4-isothiazoline] |  |  |  | 250 µg/mL | 250 µg/mL | 250 µg/mL |  |  |  |  |  |  |  |  |  |  |  |  |  | MIC (P. aeruginosa; P. aeruginosa, week 1, 28° C.): 250 µg/mL (≈ 1080 µM); MIC (Ps. aeruginosa; 168 h, cutting oil emulsion, incubation 1 week, 28°, read-out: Minimum Inhibitory Concentration): 125 µg/mL (≈ 539 µM); MIC (Ps. aeruginosa; 336 h, cutting oil emulsion, incubation 2 weeks, 28°, read-out: Minimum Inhibitory Concentration): 125 µg/mL (≈ 539 µM); MIC (Ps. aeruginosa; 504 h, cutting oil emulsion, incubation 3 weeks, 28°, read-out: Minimum Inhibitory Concentration): 250 µg/mL (≈ 1080 µM); MIC (Ps. aeruginosa; 672 h, cutting oil emulsion, incubation 4 weeks, 28°, read-out: Minimum Inhibitory Concentration): 250 µg/mL (≈ 1080 µM); MIC (A. niger; A. niger, week 1, 28° C.): 250 µg/mL (≈ 1080 µM); MIC (A. niger; A. niger, week 2, 28° C.): 500 µg/mL (≈ 2150 µM); MIC (A. niger; A. niger, week 3, 28° C.): 500 µg/mL (≈ 2150 µM); MIC (A. niger; A. niger, week 4, 28° C.): 500 µg/mL (≈ 2150 µM); MIC (P. piscarium; P. Piscarium, week 1, 28° C., read-out: Minimum inhibitory concentration): 250 µg/mL (≈ 1080 µM); MIC (P. piscarium; P. Piscarium, week 2, 28° C., read-out: Minimum inhibitory concentration): 250 µg/mL (≈ 1080 µM); MIC (P. piscarium; P. Piscarium, week 3, 28° C., read-out: Minimum inhibitory concentration): 250 µg/mL (≈ 1080 µM); MIC (P. piscarium; P. Piscarium, week 4, 28° C., read-out: Minimum inhibitory concentration): 500 µg/mL (≈ 2150 µM); Minimum Inhibitory Concentration (E. aerogenes; E. aerogenes, week 2, 28° C.): 250 µg/mL; Minimum Inhibitory Concentration (E. aerogenes; E. aerogenes, week 3, 28° C.): 250 µg/mL; Minimum Inhibitory Concentration (E. aerogenes; E. aerogenes, week 4, 28° C.): 250 µg/mL; MIC (E. aerogenes; E. aerogenes, week 1, 28° C., read-out: Minimum inhibitory concentration): 250 µg/mL (≈ 1080 µM) |
| C[n+]1sc(Cl)c(Cl)c1Cl [No. 1 (Table I), 2-Methyl-3,4,5-trichloroisothiazolium fluorosulfonate] | > 20 mm |  |  |  |  |  |  |  |  |  |  |  |  |  |  |  |  |  |  | Zone (zone of inhibition) (Aureobasidium pullulans; Conc. 0.25% in vinyl acetate paint, O3SF): 0 mm; Minimum Inhibitory Concentration (Ps. aeruginosa; cutting oil emulsion, incubation 1 week, 28°, O3SF): < 16 µg/mL; Minimum Inhibitory Concentration (Ps. aeruginosa; cutting oil emulsion, incubation 2 weeks, 28°, O3SF): < 16 µg/mL; Minimum Inhibitory Concentration (Ps. aeruginosa; cutting oil emulsion, incubation 3 weeks, 28°, O3SF): < 16 µg/mL; Minimum Inhibitory Concentration (Ps. aeruginosa; cutting oil emulsion, incubation 4 weeks, 28°, O3SF): < 16 µg/mL |
